Test results: ChEMBL document CHEMBL1153952, “Selective, potent PPARgamma agonists with cyclopentenone core structure” (Bioorg Med Chem Lett, 2009)

Legend:
[1] = target: T1, Peroxisome proliferator-activated receptor delta (Homo sapiens, UniProt Q03181)
T1 sequence (Q03181 whole entry): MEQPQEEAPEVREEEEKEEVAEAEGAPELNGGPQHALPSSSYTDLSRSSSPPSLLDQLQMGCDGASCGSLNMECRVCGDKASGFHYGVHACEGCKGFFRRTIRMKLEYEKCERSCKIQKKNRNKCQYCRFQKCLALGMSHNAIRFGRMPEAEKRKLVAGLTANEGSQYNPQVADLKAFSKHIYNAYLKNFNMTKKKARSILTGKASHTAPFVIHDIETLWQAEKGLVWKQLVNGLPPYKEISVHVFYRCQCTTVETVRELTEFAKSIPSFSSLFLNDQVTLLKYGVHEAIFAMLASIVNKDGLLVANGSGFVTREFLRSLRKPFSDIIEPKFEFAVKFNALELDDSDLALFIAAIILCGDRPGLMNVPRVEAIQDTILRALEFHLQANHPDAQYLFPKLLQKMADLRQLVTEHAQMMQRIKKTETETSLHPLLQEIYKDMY

[2] = target: T2, Peroxisome proliferator-activated receptor alpha (Homo sapiens, UniProt Q07869); assay: Agonist activity at PPARalpha ligand binding domain expressed in human HeLa cells co-transfected with Gal4-DBD assessed as transcriptional activation by Gal4 response element-driven luciferase reporter gene assay; type: cell-based
T2 sequence (Q07869 whole entry): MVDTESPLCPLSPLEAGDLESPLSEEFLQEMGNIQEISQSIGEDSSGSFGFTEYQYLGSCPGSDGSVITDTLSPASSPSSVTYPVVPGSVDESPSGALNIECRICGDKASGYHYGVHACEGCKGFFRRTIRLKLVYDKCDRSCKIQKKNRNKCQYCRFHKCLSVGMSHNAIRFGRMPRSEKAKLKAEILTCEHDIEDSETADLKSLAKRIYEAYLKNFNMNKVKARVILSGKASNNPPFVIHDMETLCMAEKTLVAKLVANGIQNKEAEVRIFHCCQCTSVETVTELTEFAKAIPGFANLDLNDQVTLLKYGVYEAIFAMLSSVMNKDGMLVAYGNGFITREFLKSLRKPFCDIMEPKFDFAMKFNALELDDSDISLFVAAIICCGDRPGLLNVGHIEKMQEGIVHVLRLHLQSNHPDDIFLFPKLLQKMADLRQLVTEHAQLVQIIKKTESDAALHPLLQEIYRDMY

[3] = target: T3, Peroxisome proliferator-activated receptor gamma (Homo sapiens, UniProt P37231); type: cell-based, HeLa
T3 sequence (P37231 whole entry): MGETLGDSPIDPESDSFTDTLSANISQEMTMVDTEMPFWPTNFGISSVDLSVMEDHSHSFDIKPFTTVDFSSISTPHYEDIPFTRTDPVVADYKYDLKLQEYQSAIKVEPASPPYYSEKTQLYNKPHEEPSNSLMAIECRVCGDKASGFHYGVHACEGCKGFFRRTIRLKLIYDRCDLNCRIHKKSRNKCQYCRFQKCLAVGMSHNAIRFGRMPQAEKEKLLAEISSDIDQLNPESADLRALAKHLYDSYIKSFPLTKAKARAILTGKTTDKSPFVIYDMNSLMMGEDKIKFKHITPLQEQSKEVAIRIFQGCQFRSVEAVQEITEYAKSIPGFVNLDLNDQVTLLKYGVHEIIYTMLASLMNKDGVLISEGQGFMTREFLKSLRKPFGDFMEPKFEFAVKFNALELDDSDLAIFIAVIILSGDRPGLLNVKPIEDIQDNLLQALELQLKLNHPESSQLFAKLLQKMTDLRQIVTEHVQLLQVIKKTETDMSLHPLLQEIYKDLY

Compound	EC50 [1] [nM]	EC50 [2] [nM]	EC50 [3] [nM]
CCCCCCC[C@H]1C(=O)C=C[C@@H]1OCCCCCC(=O)O	> 10000	1000	4000
CCCCCCC[C@H]1C(=O)C=C(I)[C@@H]1OCCCCCC(=O)O (relative stereo)	500	1000	30
CCCCCCC[C@H]1C(=O)C=C(I)[C@H]1OCCCCCC(=O)O (relative stereo)	> 10000	> 10000	60
CCCCCCCN(CCc1ccc(SC(C)(C)C(=O)O)cc1)C(=O)Nc1ccc(F)cc1F [GSK-9578]	1000	–	–

Now from value to compound:

EC50 [1] [nM]	EC50 [2] [nM]	EC50 [3] [nM]	Compound
2000	–	2000	CCCCCCC[C@H]1C(=O)C=C[C@H]1OCCCCCC(=O)O
2000	500	8000	CCCCCCC#CC1=CC(=O)[C@H](CCCCCCC)[C@H]1OCCCCCC(=O)O (relative stereo)
> 10000	500	4000	CCCCCCC#CC1=CC(=O)[C@H](CCCCCCC)[C@@H]1OCCCCCC(=O)O (relative stereo)
